# According to patent publication US20220265762A1, “COMPOSITION, COMPRISING TMEM176B OR AN EXPRESSION OR ACTIVITY REGULATOR THEREOF AS AN ACTIVE INGREDIENT, FOR PREVENTION OR TREATMENT OF DEGENERATIVE BRAIN DISEASE” (AMYLOID SOLUTION INC., priority 2019, published 2022):
# Key:
# astrocyte [1] = assay: Phagocytic activity of astrocyte on FAM-labeled amyloid-beta oligomer after TMEM176B inhibitor treatment; type: cell-based; details: inhibitor at 0, 3.703, 11.11, 33.33, 100 μM, FIG. 1
# Experimental: In detail, BAYK8644 (by Merck) was used as a TMEM176B inhibitor, a method of confirming phagocytic activity of an astrocyte (by Abm) after treatment with the inhibitor was performed as follows. The astrocyte was cultured in a 96-well black cell culture plate (by SPL) using a PriGrow IV medium containing 10% FBS (by GIBCO), penicillin/streptomycin (by Thermo), human EGF 10 ng/mL (by Abm), and L-glutamine (by Abm), and incubation thereof was started at a density of 50,000 cells per well. Here, the TMEM176B inhibitor was treated at concentrations of 0 μM, 3.703 μM, 11.11 μM, 33.33 μM, and 100 μM, and the then the cells were stabilized by incubation at 37° C. in a 5% CO2 incubator for 18 to 24 hours. Fluorescent FAM-labeled amyloid-beta was dissolved in cold PBS (by Anaspec) at a concentration of 5 μM, blocked from light, and stored in a refrigerator at 4° C. for 24 hours to prepare amyloid-beta in oligomers. […] After 1 minute, trypan blue was removed by suction, and the phagocytized oligomeric amyloid-beta was measured at an excitation wavelength of 485 nm/emission wavelength of 535 nm using a microplate reader capable of measuring fluorescence. […] After the incubation was completed, a washing process was performed thereon once with PBS, and the stained nuclei were measured at an excitation wavelength of 360 nm/emission wavelength of 465 nm.
# astrocyte [2] = assay: Phagocytic activity of astrocyte with overexpressed TMEM176B on FAM-labeled amyloid-beta oligomer; type: cell-based; details: virus-inoculated astrocytes treated with inhibitor at 0, 10, 50 μM; FIG. 3
# Experimental: A TMEM176B-infected astrocyte and a normal astrocyte were separately cultured into wells of a 96-well black cell culture plate (by SPL) at a density of 50,000 cells per well, the plate using PriGrow IV medium containing 10% FBS (by GIBCO), penicillin/streptomycin (by Thermo), 10 ng/mL of human EGF (by Abm), and L-glutamine (by Abm). Here, only the astrocytes inoculated with the TMEM176B-adeno-associated virus were treated with the TMEM176B inhibitor at concentrations of 0 μM, 10 μM, and 50 μM, and then stabilized by incubation at 37° C. in a 5% CO2 incubator for 18 to 24 hours. FAM-labeled amyloid-beta (by Anaspec) was dissolved in cold PBS at a concentration of 5 μM, blocked from light, and stored in a refrigerator at 4° C. for 24 hours to prepare an oligomer. […] After 1 minute, trypan blue was removed, and the phagocytized oligomeric amyloid-beta was measured at an excitation wavelength of 485 nm/emission wavelength of 535 nm using a microplate reader capable of measuring fluorescence. […] After the incubation was completed, a washing process was performed thereon once with PBS, and the stained nuclei were measured at an excitation wavelength of 360 nm/emission wavelength of 465 nm using a microplate reader capable of measuring fluorescence.
smiles,measurement,setting,value
"COC(=O)C1=C(C)NC(C)=C([N+](=O)[O-])C1c1ccccc1C(F)(F)F (centres unmarked) [TMEM176B inhibitor, BAYK8644]",phagocytosis function on the amyloid-beta oligomer,astrocyte [1],decreased the phagocytosis function
same,phagocytosis of oligomeric amyloid-beta,astrocyte [2],decreased in a concentration-dependent manner
